In patent US5077277A, “Chemical derivatives of antibiotics LL-E19020 alpha and beta” (American Cyanamid Company, priority 1989, dated 1991):

How the values were obtained:
Assay type in all cases: cell-based
Details in all cases: 18 hours incubation
[1] = tested on: Streptococcus b-hemolyticus C 203; experiment: In vitro antibacterial activity, standard agar dilution (MIC)
[2] = tested on: Bacteroides vulgaris ATCC 29327; experiment: as above
[3] = tested on: Clostridium difficile ATCC 17858; experiment: as above
[4] = tested on: Peptococcus asaccharolyticus ATCC 29743; experiment: as above
[5] = tested on: Clostridium perfringens ATCC 13124
[6] = tested on: Streptococcus b-hemolyticus VGH 0.5; experiment: In vitro antibacterial activity, standard agar dilution (MIC)
[7] = tested on: Streptococcus pneumoniae SV-1; experiment: as above
[8] = tested on: Peptococcus magnus ATCC 14956; experiment: as above
[9] = tested on: Streptococcus b-hemolyticus VGH 84-60; experiment: as above
[10] = tested on: Streptococcus b-hemolyticus VGH 84-62; experiment: as above
[11] = tested on: Streptococcus pneumoniae K 84-21; experiment: as above
[12] = tested on: Peptococcus magnus ATCC 29328; experiment: as above

Compound | Minimal Inhibitory Concentration [1] [µg/mL] | Minimal Inhibitory Concentration [2] [µg/mL] | Minimal Inhibitory Concentration [3] [µg/mL] | Minimal Inhibitory Concentration [4] [µg/mL] | Minimal Inhibitory Concentration [5] [µg/mL] | Minimal Inhibitory Concentration [6] [µg/mL] | Minimal Inhibitory Concentration [7] [µg/mL] | Minimal Inhibitory Concentration [8] [µg/mL] | Minimal Inhibitory Concentration [9] [µg/mL] | Minimal Inhibitory Concentration [10] [µg/mL] | Minimal Inhibitory Concentration [11] [µg/mL] | Minimal Inhibitory Concentration [12] [µg/mL]
C/C=C\C=C\C1OC(O)(C(CNC(=O)Cc2ccccc2)C(=O)NC/C=C/C=C(\C)C(OC)C(C)C2CC(O)C(/C=C/C=C/C=C/C(=O)O)O2)C(O)C(O)C1(C)C (stereo not drawn) [Compound I, Ammonolysis Product of LL-E19020 α and β] | 8 | 128 | 4 | 0.25 | > 128 | 16 | 64 | ≤ 0.06 | 4 | 16 | > 128 | 0.25
Aglycone Methyl Ester of LL-E19020β [Compound VI] | > 128 | > 128 |  | 0.5 | > 128 | > 128 | > 128 | 0.5 | > 128 | > 128 | > 128 | 0.5
Methyl Ester of LL-E19020α [Compound II] | 0.12 | 128 | 2 | ≤ 0.06 | 64 | 2 | 4 | ≤ 0.06 | 0.5 | 2 | 8 | ≤ 0.06
Methyl Ester of LL-E19020β [Compound III] | 2 | 16 | 8 | ≤ 0.06 | > 128 | 8 | 8 | ≤ 0.06 | 2 | 8 | 32 | ≤ 0.06
Monosaccharide of Methyl Ester of LL-E19020α [Compound IV] | 4 | > 128 | 8 | ≤ 0.06 | > 128 | 8 | 16 | ≤ 0.06 | 2 | 8 | 16 | ≤ 0.06
Monosaccharide of Methyl Ester of LL-E19020β [Compound V] | 8 | > 128 | 64 | ≤ 0.06 | > 128 | 32 | 32 | ≤ 0.06 | 8 | 32 | 64 | ≤ 0.06
